Laboratory results reported in patent US20210138025A1, “CATIONIC PEPTIDES WITH IMMUNOMODULATORY AND/OR ANTI-BIOFILM ACTIVITIES” (priority 2018, published 2021).
≈ marks a conversion by molar mass, not a printed value. Non-standard residues stand in square brackets, D forms with d. Residues, ends and D or L forms follow the SMILES beside them.

Legend:
Format in all cases: cell-based
[1] = tested on: Bordatella bronchiseptica (Bb)
Experimental: (§1) The following strains were assessed vs. Staphylococcus epidermidis (Se), Pseudomonas aeruginosa (Pa), Streptococcus dysgalactiae (Sd), Pasteurella multocida (Pm), Streptococcus agalactiae (Sa), Streptococcus uberis (Su), Streptococcus suis (Ss), Mannheimia haemolytica (Mh), Bordatella bronchiseptica (Bb), Histophilus somnus (Hs), and Staphylococcus pseudintermedius (Sp) (Table 18) for Minimal Inhibitory Concentrations (MIC). Italics=excellent activity (less than or equal to 4 μg/ml).

Histophilus somnus (Hs) [2] = tested on: Histophilus somnus (Hs)
Experimental: as §1

[3] = tested on: Mannheimia haemolytica (Mh)
Experimental: as §1

[4] = tested on: Pasteurella multocida (Pm)
Experimental: as §1

[5] = tested on: Pseudomonas aeruginosa (Pa)
Experimental: as §1

[6] = tested on: Staphylococcus epidermidis (Se)
Experimental: as §1

[7] = tested on: Staphylococcus pseudintermedius (Sp)
Experimental: as §1

[8] = tested on: Streptococcus agalactiae (Sa)
Experimental: as §1

[9] = tested on: Streptococcus dysgalactiae (Sd)
Experimental: as §1

Streptococcus suis (Ss) [10] = tested on: Streptococcus suis (Ss)
Experimental: as §1

[11] = tested on: Streptococcus uberis (Su)
Experimental: as §1

E. coli (Ec) [12] = conditions: Ec
S. aureus (Sau) [13] = conditions: Sau
[14] = tested on: Bordatella bronchiseptica (Bb); remark: listed apart in the source
Experimental: (§2) The same strains as in Table 18 were assessed for Minimal Biofilm Inhibitory Concentrations (MBIC) (Table 19). Italics=excellent activity (less than or equal to 4 μg/ml). ND=Not determined. Peptides 3013, 3015 and 3016 inhibited biofilm growth in the largest number of bacterial strains (5, 5 and 6 out of 13 strains, respectively).

Histophilus somnus (Hs) [15] = tested on: Histophilus somnus (Hs); remark: listed apart in the source
Experimental: as §2

[16] = tested on: Mannheimia haemolytica (Mh); remark: listed apart in the source
Experimental: as §2

[17] = tested on: Pasteurella multocida (Pm); remark: listed apart in the source
Experimental: as §2

[18] = tested on: Pseudomonas aeruginosa (Pa); remark: listed apart in the source
Experimental: as §2

[19] = tested on: Staphylococcus epidermidis (Se); remark: listed apart in the source
Experimental: as §2

[20] = tested on: Staphylococcus pseudintermedius (Sp); remark: listed apart in the source
Experimental: as §2

[21] = tested on: Streptococcus agalactiae (Sa); remark: listed apart in the source
Experimental: as §2

[22] = tested on: Streptococcus dysgalactiae (Sd); remark: listed apart in the source
Experimental: as §2

Streptococcus suis (Ss) [23] = tested on: Streptococcus suis (Ss); remark: listed apart in the source
Experimental: as §2

[24] = tested on: Streptococcus uberis (Su); remark: listed apart in the source
Experimental: as §2

E. coli (Ec) [25] = conditions: Ec; remark: listed apart in the source
S. aureus (Sau) [26] = conditions: Sau; remark: listed apart in the source
CCL5 [27] = assay: CCL5 production by peptide alone and in presence of LPS, bovine cells (Table 21); conditions: peptide 32 μg/ml
Experimental: (§3) A subset of peptides was tested for stimulation of the chemokine CCL5 (Table 21).

CCL5 [28] = assay: CCL5 production by peptide alone and in presence of Con A, canine cells (Table 21); conditions: peptide 32 μg/ml
Experimental: as §3

monocytes [29] = assay: Cytokine production in unstimulated monocytes, bovine (Table 22); conditions: background subtracted
Experimental: (§4) A subset of peptides was tested for stimulation of cytokine production in monocytes (Table 22). For the tested cytokines, the peptides tended to show anti-inflammatory activity rather than […] activity.

monocytes [30] = assay: Cytokine production in unstimulated monocytes, canine (Table 22); conditions: background subtracted
Experimental: as §4

LPS stimulated monocytes = assay: Anti-inflammatory activity in LPS stimulated monocytes, bovine (Table 23); conditions: 32 μg/ml peptide, negative = increase
[31] = tested on: ConA stimulated monocytes; assay: Anti-inflammatory activity in ConA stimulated monocytes, canine (Table 23); conditions: 32 μg/ml peptide, negative = increase
T-lymphocytes [32] = assay: Cytokine production in T-lymphocytes, bovine (Table 24); conditions: no additional stimulant, background (NONE) subtracted
T-lymphocytes [33] = assay: Cytokine production in T-lymphocytes, canine (Table 24); conditions: no additional stimulant, background (NONE) subtracted
T-lymphocytes [34] = assay: Anti-inflammatory activity towards stimulated T-lymphocytes, bovine (Table 25); conditions: Bovine T-cells, 32 μg/ml of peptide
T-lymphocytes [35] = assay: Anti-inflammatory activity towards stimulated T-lymphocytes, canine (Table 25); conditions: Canine T-cells, 32 μg/ml of peptide

MIC Bb [1]: 4 µg/mL (≈ 2.58 µM)
MIC Hs (Histophilus somnus (Hs) [2]): 32 µg/mL (≈ 20.6 µM)
MIC Pm [4]: 8 µg/mL (≈ 5.16 µM)
MIC Pa [5]: 4 µg/mL (≈ 2.58 µM)
MIC Se [6]: 2 µg/mL (≈ 1.29 µM)
MIC Sp [7]: <1 µg/mL
MIC Sa [8]: 2 µg/mL (≈ 1.29 µM)
MIC Sd [9]: <1 µg/mL
MIC Ss (Streptococcus suis (Ss) [10]): <1 µg/mL
MIC Su [11]: <1 µg/mL
MIC E. coli (E. coli (Ec) [12]): <1 µg/mL
MIC Ec (E. coli (Ec) [12]): <1 µg/mL
MIC S. aureus (S. aureus (Sau) [13]): 2 µg/mL (≈ 1.29 µM)
MIC Sau (S. aureus (Sau) [13]): 2 µg/mL (≈ 1.29 µM)
SMILES: CC[C@@H](C)[C@@H](NC(=O)[C@@H](C)NC(=O)[C@@H](CCCNC(=N)N)NC(=O)[C@@H](Cc1c[nH]c2ccccc12)NC(=O)[C@@H](CCC(N)=O)NC(=O)[C@H](N)C(C)C)C(=O)N[C@H](CCCNC(=N)N)C(=O)N[C@@H](C(=O)N[C@H](CCCNC(=N)N)C(=O)N[C@@H](C(=O)N[C@@H](C(=O)N[C@H](CCCNC(=N)N)C(N)=O)[C@H](C)CC)C(C)C)C(C)C [DJK5, VQWRAIRVRVIR] (H-[dV][dQ][dW][dR][dA][dI][dR][dV][dR][dV][dI][dR]-NH2; N-terminus and C-terminus assumed)
MIC Mh [3]: 8 µg/mL (≈ 5.16 µM)
MBIC [14]: 2 µg/mL
MBIC (Histophilus somnus (Hs) [15]): <1 µg/mL
MBIC [16]: 4 µg/mL
MBIC [17]: 2 µg/mL
MBIC [18]: 8 µg/mL
MBIC [19]: 2 µg/mL
MBIC [20]: <1 µg/mL
MBIC [21]: 2 µg/mL
MBIC [22]: 2 µg/mL
MBIC (Streptococcus suis (Ss) [23]): 4 µg/mL
MBIC [24]: 2 µg/mL
MBIC (E. coli (Ec) [25]): <1 µg/mL
MBIC E. coli (E. coli (Ec) [25]): <1 µg/mL
MBIC (S. aureus (Sau) [26]): <1 µg/mL
MBIC S. aureus (S. aureus (Sau) [26]): <1 µg/mL
Concentration of CCL5 in the absence of stimulation by LPS or ConA (CCL5 [27]; Bovine Monocyte): 825
Concentration of CCL5 in the absence of stimulation by LPS or ConA (CCL5 [27]; Bovine T-cells): 195
% CCL5 production relative to that of LPS/ConA (CCL5 [27]; Bovine/LPS Monocyte): 105%
% CCL5 production relative to that of LPS/ConA (CCL5 [27]; Bovine/LPS T-cells): 79%
Concentration of CCL5 in the absence of stimulation by LPS or ConA (CCL5 [28]; Canine Monocyte): 442
Concentration of CCL5 in the absence of stimulation by LPS or ConA (CCL5 [28]; Canine T-cells): 290
% CCL5 production relative to that of LPS/ConA (CCL5 [28]; Canine/ConA Monocyte): 81%
% CCL5 production relative to that of LPS/ConA (CCL5 [28]; Canine/ConA T-cells): 26%
Concentration of Monocyte cytokine IFNγ in absence of additional stimulant (monocytes [29]): -3 pg/mL
Concentration of Monocyte cytokine IL-2 in absence of additional stimulant (monocytes [29]): -103 pg/mL
Concentration of Monocyte cytokine IL-4 in absence of additional stimulant (monocytes [29]): -196 pg/mL
Concentration of Monocyte cytokine IL-6 in absence of additional stimulant (monocytes [29]): 75 pg/mL
Concentration of Monocyte cytokine IL-13 in absence of additional stimulant (monocytes [29]): 294 pg/mL
Concentration of Monocyte cytokine TNFα in absence of additional stimulant (monocytes [29]): -218 pg/mL
Concentration of Monocyte cytokine IFNγ in absence of additional stimulant (monocytes [30]): -310 pg/mL
Concentration of Monocyte cytokine IL-2 in absence of additional stimulant (monocytes [30]): 86 pg/mL
Concentration of Monocyte cytokine IL-4 in absence of additional stimulant (monocytes [30]): -241 pg/mL
Concentration of Monocyte cytokine IL-6 in absence of additional stimulant (monocytes [30]): -113 pg/mL
Concentration of Monocyte cytokine IL-13 in absence of additional stimulant (monocytes [30]): -25 pg/mL
Concentration of Monocyte cytokine TNFα in absence of additional stimulant (monocytes [30]): -73 pg/mL
% Monocyte cytokine decrease in presence of LPS/ConA, IFNγ (LPS stimulated monocytes): 31.6%
% Monocyte cytokine decrease in presence of LPS/ConA, IL-2 (LPS stimulated monocytes): 34.0%
% Monocyte cytokine decrease in presence of LPS/ConA, IL-4 (LPS stimulated monocytes): 3.9%
% Monocyte cytokine decrease in presence of LPS/ConA, IL-6 (LPS stimulated monocytes): 21.0%
% Monocyte cytokine decrease in presence of LPS/ConA, IL-13 (LPS stimulated monocytes): 65.5%
% Monocyte cytokine decrease in presence of LPS/ConA, TNFα (LPS stimulated monocytes): 68.1%
% Monocyte cytokine decrease in presence of LPS/ConA, IFNγ [31]: 13.7%
% Monocyte cytokine decrease in presence of LPS/ConA, IL-2 [31]: 38.9%
% Monocyte cytokine decrease in presence of LPS/ConA, IL-4 [31]: 32.6%
% Monocyte cytokine decrease in presence of LPS/ConA, IL-6 [31]: 39.9%
% Monocyte cytokine decrease in presence of LPS/ConA, IL-13 [31]: 36.5%
% Monocyte cytokine decrease in presence of LPS/ConA, TNFα [31]: 44.3%
Concentration of T-cell cytokines in the absence of additional stimulant: IFNγ (T-lymphocytes [32]): -12 pg/mL
Concentration of T-cell cytokines in the absence of additional stimulant: IL-2 (T-lymphocytes [32]): -66 pg/mL
Concentration of T-cell cytokines in the absence of additional stimulant: IL-4 (T-lymphocytes [32]): -73 pg/mL
Concentration of T-cell cytokines in the absence of additional stimulant: IL-6 (T-lymphocytes [32]): -92 pg/mL
Concentration of T-cell cytokines in the absence of additional stimulant: IL-13 (T-lymphocytes [32]): 178 pg/mL
Concentration of T-cell cytokines in the absence of additional stimulant: TNFα (T-lymphocytes [32]): 113 pg/mL
Concentration of T-cell cytokines in the absence of additional stimulant: IFNγ (T-lymphocytes [33]): 11 pg/mL
Concentration of T-cell cytokines in the absence of additional stimulant: IL-2 (T-lymphocytes [33]): 13 pg/mL
Concentration of T-cell cytokines in the absence of additional stimulant: IL-4 (T-lymphocytes [33]): 71 pg/mL
Concentration of T-cell cytokines in the absence of additional stimulant: IL-6 (T-lymphocytes [33]): 149 pg/mL
Concentration of T-cell cytokines in the absence of additional stimulant: IL-13 (T-lymphocytes [33]): -100 pg/mL
Concentration of T-cell cytokines in the absence of additional stimulant: TNFα (T-lymphocytes [33]): -46 pg/mL
% Cytokine decrease in the presence of LPS/ConA: IFNγ (T-lymphocytes [34]): 34.9%
% Cytokine decrease in the presence of LPS/ConA: IL-2 (T-lymphocytes [34]): 80.7%
% Cytokine decrease in the presence of LPS/ConA: IL-4 (T-lymphocytes [34]): 37.7%
% Cytokine decrease in the presence of LPS/ConA: IL-6 (T-lymphocytes [34]): −16.4%
% Cytokine decrease in the presence of LPS/ConA: IL-13 (T-lymphocytes [34]): 85.3%
% Cytokine decrease in the presence of LPS/ConA: TNFα (T-lymphocytes [34]): 38.2%
% Cytokine decrease in the presence of LPS/ConA: IFNγ (T-lymphocytes [35]): 60.2%
% Cytokine decrease in the presence of LPS/ConA: IL-2 (T-lymphocytes [35]): 62.3%
% Cytokine decrease in the presence of LPS/ConA: IL-4 (T-lymphocytes [35]): 65.5%
% Cytokine decrease in the presence of LPS/ConA: IL-6 (T-lymphocytes [35]): 24.8%
% Cytokine decrease in the presence of LPS/ConA: IL-13 (T-lymphocytes [35]): 48.2%
% Cytokine decrease in the presence of LPS/ConA: TNFα (T-lymphocytes [35]): 7.1%
